Assay results from article PMC5458211, “Mitochondrial VDAC1-based peptides: Attacking oncogenic properties in glioblastoma” (Oncotarget, 2017).
Non-standard residues stand in square brackets, D forms with d. Residues, ends and D or L forms follow the SMILES beside them.

Columns and labels:
[1] = tested on: U-251MG cells; test: Cell death by PI staining and flow cytometry, U-251MG; format: cell-based, human; conditions: 6 h at 37°C, serum-free medium, means ± SD (n=3), Fig 1H, read-out: IC50 for inducing cell death
Excerpt: Figure 1 VDAC1-based peptides induce dramatic cell death of several brain tumor-derived cell lines but to lesser extent in primary brain cells A. IHC staining of VDAC1 of human normal brain (n=13) or glioblastoma (n=41) in tissue array slides (Biomax), as described in Materials and methods available online in Supplemental information. Percentages of sections stained at the intensity indicated are shown. […] The VDAC1-derived sequences Δ(1-14)N-terminus and LP4 are in green and pink, respectively. The cell-penetrating peptides Antp and Tf are in orange and blue, respectively. The loop shape of LP4 stabilized by a tryptophan zipper is in purple. The amino acids of Δ(1-14)N-terminus, LP4 and Antp are in the D configuration. The sequences of D-LP4 and Retro-D-LP4 are presented below. C. […] Cells were harvested, washed twice with PBS and cell death was analyzed by propidium iodide (PI) staining and flow cytometry. […] Cells were harvested, washed twice with PBS and cell death was analyzed by PI staining and flow cytometry. […]
Cells (6×10^5 /ml) were incubated in 500 μl serum-free medium with the peptide of interest for 6 h at 37°C in the presence of 5% CO2. The cells were then trypsinized, centrifuged (1500xg, 5 min), washed with PBS and analyzed for cell death using propidium iodide (PI) staining and flow cytometer (Beckton-Dickinson, San Jose, CA) and BD CellQuest Pro software. […]

[2] = tested on: U-87MG intracranial xenograft tumors; test: U-87MG intracranial-orthotopic xenograft, tumor volume by MRI; format: in vivo, human U-87MG in nude mice
Protocol: B. U-87MG cells (2×10^5) were incubated for 12 h with the indicated concentrations of DMSO, Retro-Tf-D-LP4 peptide (Pep), or Retro-Tf-D-LP4 encapsulated in PLGA nanoparticles (PLGA-Pep). Samples of Retro-Tf-D-LP4 encapsulated in PLGA nanoparticles were centrifuged (15000g, 5 min) to separate the supernatant (Sup), containing free peptide, and the pellet, containing encapsulated Retro-Tf-D-LP4 peptide. Cell death was analyzed by PI staining and FACS analysis. C. Graphical representation of the orthotopic animal experiment. D. MRI imaging of brains 29 days post-intravenal treatment start with DMSO (1.05%), Retro-Tf-D-LP4 (10 mg/kg) encapsulated in PLGA nanoparticles or Tf-D-Retro-LP4 peptide (10 mg/Kg), as described in Materials and Methods available online in Supplemental information. E. Calculated tumor volumes after 20 (dark grey bars) and 29 (light grey bars) days post-treatment start. Results = mean ± SE (n = 6) (* p<0.05, *** p<0.001). F. Kaplan-Meier survival curves showing statistically significant differences in survival curves between the PBS/DMSO and Retro-Tf-D-LP4 treated mice. Cumulative Kaplan-Meier survival curves of control mice (red line), Retro-Tf-D-LP4 peptide (10mg/kg) encapsulated in PGLA nanoparticles (black line, ** p=0.006) or Retro-Tf-D-LP4 peptide (10 mg/kg, pink line, *** p=0.0003). The arrow indicates the end of the peptide treatment (day 46).
For the intracranial-orthotopic xenograft mouse model, U-87MG cells (8×10^4) were engrafted into a nude mouse brain using a stereotactic device. Forty eight hours after surgery, mice were randomized into three groups (6 animals/group) and treated every third day with DMSO (1.44%), Retro-Tf-D-LP4 (10mg/Kg) or Retro-Tf-D-LP4 (10mg/Kg) encapsulated by PLGA. Mice were subjected to MRI, sacrificed; brains were excised and processed for IHC. Tumor volume was analyzed using VivoQuant 2.10 software.
PLGA encapsulation of the VDAC1-based minutes using an UltraMicroPump III (World Precision peptide Retro-Tf-D-LP4 Instruments, Sarasota, FL). After infusion, the needle was left in place for 1 minute before slow withdrawal. The burr […]
100% DMSO and then diluted 20-fold with sterile DDW into three groups (6 animals/group) and treated every to reach a concentration of 25 mg/ml in a final DMSO third day with DMSO (1.44%), Retro-Tf-D-LP4 (10 concentration of 5%. PLGA (50 mg) was dissolved in mg/kg) or Retro-Tf-D-LP4 (10 mg/kg) encapsulated by acetone (1 ml). […] Tumor volume was analyzed using VivoQuant 2.10 10 ml of aqueous solution containing 1% PVA (w/v). […]
of the experiments, the mice were sacrificed, tumors were IHC of tumor tissue sections excised and ex vivo weight was determined. […]

Row | SMILES | IC50 [1] [µM] | decrease in orthotopic xenograft tumor volume, day 20 ([2]; 10 mg/kg i.v., every third day, 20 days after start of treatment, MRI, n = 6) [%] | decrease in orthotopic xenograft tumor volume, day 29 ([2]; 10 mg/kg i.v., every third day, 29 days after start of treatment, MRI, n = 6) [%] | free vs PLGA-encapsulated peptide, effectiveness ([2]; intracranial model, tumor size and survival) | reduction of tumor volume, maximum (Discussion) ([2]; intracranial-orthotopic xenograft, i.v., free peptide)
1 | CC[C@@H](C)[C@@H](NC(=O)[C@@H](CCCCN)NC(=O)[C@H](NC(=O)[C@@H](CCC(N)=O)NC(=O)[C@@H](CCCNC(=N)N)NC(=O)[C@@H](CC(C)C)NC(=O)CNC(=O)[C@@H](Cc1ccccc1)NC(=O)CNC(=O)[C@@H](Cc1ccc(O)cc1)NC(=O)CNC(=O)[C@@H](CCCCN)NC(=O)[C@H](NC(=O)[C@@H](Cc1ccccc1)NC(=O)[C@H](NC(=O)[C@@H](CC(=O)O)NC(=O)[C@H](N)CCCNC(=N)N)C(C)C)[C@H](C)O)[C@H](C)CC)C(=O)N[C@H](Cc1c[nH]c2ccccc12)C(=O)N[C@H](Cc1ccccc1)C(=O)N[C@H](CCC(N)=O)C(=O)N[C@H](CC(N)=O)C(=O)N[C@H](CCCNC(=N)N)C(=O)N[C@H](CCCNC(=N)N)C(=O)N[C@H](CCSC)C(=O)N[C@H](CCCCN)C(=O)N[C@H](Cc1c[nH]c2ccccc12)C(=O)N[C@H](CCCCN)C(=O)N[C@H](CCCCN)C(=O)O [D-ΔN-Ter-Antp] (H-[dR][dD][dV][dF][dT][dK]G[dY]G[dF]G[dL][dR][dQ][dI][dK][dI][dW][dF][dQ][dN][dR][dR][dM][dK][dW][dK][dK]-OH; N-terminus and C-terminus assumed) | 4.7 ± 0.9 |  |  |  | 
2 | CC[C@H](C)[C@H](NC(=O)[C@H](Cc1ccc(O)cc1)NC(=O)[C@@H]1CCCN1C(=O)[C@H](CCCNC(=N)N)NC(=O)[C@H](Cc1c[nH]cn1)NC(=O)[C@H](CO)NC(=O)[C@H](Cc1c[nH]c2ccccc12)NC(=O)[C@@H](NC(=O)[C@H](Cc1c[nH]c2ccccc12)NC(=O)[C@H](CCC(=O)O)NC(=O)[C@@H](CCCCN)NC(=O)[C@@H](CCCCN)NC(=O)[C@@H](CC(C)C)NC(=O)[C@@H](CCC(=O)O)NC(=O)[C@H](NC(=O)[C@@H](C)NC(=O)[C@H](NC(=O)[C@@H](CC(N)=O)NC(=O)[C@@H](CC(C)C)NC(=O)[C@@H](C)NC(=O)[C@@H](Cc1c[nH]c2ccccc12)NC(=O)[C@H](NC(=O)[C@@H](C)NC(=O)CNC(=O)[C@@H](CC(N)=O)NC(=O)[C@@H](CO)NC(=O)[C@@H](CC(N)=O)NC(=O)[C@H](CCCCN)NC(=O)[C@H](Cc1c[nH]c2ccccc12)NC(=O)[C@@H](NC(=O)[C@H](Cc1c[nH]c2ccccc12)NC(=O)[C@@H](N)CCCCN)[C@@H](C)O)[C@H](C)O)C(C)C)[C@H](C)O)[C@@H](C)O)C(=O)N[C@@H](C)C(=O)N[C@@H](Cc1c[nH]cn1)C(=O)O [Retro-Tf-D-LP4] |  | 60 | 90 | more effective both in reducing tumor size and in prolonging mice survival | up to 90%
